Laboratory results: patent US4024276A, “Xanthone-2-carboxylic acid compounds” (Roussel-UCLAF, priority 1974, dated 1977)

Each compound was assayed on cutaneous anaphylaxis (assay: Passive cutaneous anaphylaxis in rats (method of Ovary), anti-allergic activity). Conditions: Rattus norvegicus; male rats 180-220 g; intravenous, followed immediately by antigen/Evans blue challenge; anti-ovalbumin antiserum ID 3 days before; compounds used as tris(hydroxymethyl)methylamine salts; read-out: ED50 (dose of drug giving 50% inhibition).
Assay type: in vivo, rat
Description: Evans blue dye was injected with the antigen to act as a marker to assess the severity of the local response which is inhibited by anti-allergic compounds. Groups of 7 male rats weighing 180 to 220 g were used in this test.
Preparation of antigen for sensitization (such as alum precipitated ovalbumin) was effected by washing 120 grams of Al(OH)3 gel in 140 mls of saline solution (use of a macerator facilitates mixing). Then, the product was centrifuged at 3,000 r.p.m. for about 10 minutes and the precipitate was responded with 300 mls of albumin egg powder (1.3 mg/ml) in saline solution and allowed to stand for 30 minutes. Then, the mixture was centrifuged at 3,000 r.p.m. for 10 minutes and the wet precipitate was weighed and to each gram weight 1 ml of saline solution was added. The antigen was stored in the refrigerator and was a quantity sufficient for 60 rats for a 3 day sensitization program.
Preparation of antiserum (such as anti-ovalbumin) was effected by injecting 1 ml of the alum precipitated ovalbumin subcutaneously into the rats on days 0, 2 and 4. The rats were bled on day 14 either by cardiac puncture or via the dorsal abdominal aorta and equal quantities of serum from each animal were pooled and thoroughly mixed. 2 ml aliquots were stored at -20° C in plastic tubes.
For sensitization, rats were anaesthetized with Nembutal (40-60 mg/kg i.p.) and were then sensitized by four ID injections (0.1 ml each) on their shaved backs. The animals were then left for a period of three days to develop sensitization.
For the challenge, the sensitized rats were anaesthetized and challenged intravenously via the superficial penile vein with the anti-allergic compound, followed immediately by 1 ml of an antigen/Evans blue mixture (1 mg albumin egg powder in 0.5 ml saline solution plus 0.5 ml of 1% Evans blue). The injections were speeded up by using an automatic 1 ml self filling glass syringe. The "challenged" rats were killed after 30 minutes and their skin on the dorsal surface was removed. The degree and area of blueing, proportional to the anaphylactic reaction, was assessed on a four point scoring system as follows:
1. Total scores for sites, 1, 2, 3 and 4 = X
2. Mean value of X for each group = X
3. X t = X for test group X c = X for control group [formula]

SMILES	ED50 [mg/kg]
CCCCCCc1cc(S(C)(=O)=NC(N)=O)cc2c(=O)c3cc(C(=O)O)ccc3oc12 (stereo not shown) [7-(N-carbamoyl-S-methylsulfonimidoyl)-5-(n-hexyl)-xanthone-2-carboxylic acid]	0.008
CCCCCOc1cc(S(C)(=N)=O)cc2c(=O)c3cc(C(=O)O)ccc3oc12 (stereo not shown) [7-(S-methylsulfonimidoyl)-5-(n-pentyloxy)-xanthone-2-carboxylic acid]	0.0035
CCCCCCc1cc(S(C)(=N)=O)cc2c(=O)c3cc(C(=O)O)ccc3oc12 (stereo not shown) [7-(S-methylsulfonimidoyl)-5-(n-hexyl)-xanthone-2-carboxylic acid]	0.0028
CS(=O)(=NC(=O)c1ccccc1)c1ccc2oc3ccc(C(=O)O)cc3c(=O)c2c1 (stereo not shown) [7-(N-benzoyl-S-methylsulfonimidoyl)-xanthone-2-carboxylic acid]	0.68
CC(=O)N=S(C)(=O)c1ccc2oc3ccc(C(=O)O)cc3c(=O)c2c1 (stereo not shown) [7-(N-acetyl-S-methylsulfonimidoyl)-xanthone-2-carboxylic acid]	0.065
Cc1ccc(S(=O)(=O)N=S(C)c2ccc3oc4ccc(C(=O)O)cc4c(=O)c3c2)cc1 (stereo not shown) [7-[N-(p-toluenesulfonyl)-S-methylsulfimidoyl]-xanthone-2-carboxylic acid]	0.43

Same assay, conditions: male rats 180-220 g; intravenous, followed immediately by antigen/Evans blue challenge; anti-ovalbumin antiserum ID 3 days before; compounds used as tris(hydroxymethyl)methylamine salts

SMILES	ED50 (dose of drug giving 50% inhibition) [mg/kg]
CS(=N)(=O)c1ccc2oc3ccc(C(=O)O)cc3c(=O)c2c1 (stereo not shown) [7-(S-methylsulfonimidoyl)-xanthone-2-carboxylic acid]	0.033
